As a reminder, the GI50 is the concentration that inhibits growth by half. For orientation: IC50 means the concentration that gives 50% inhibition.

The subject of experiment [1] is DU-145. In words: Antiproliferative activity against human DU145 cells assessed as growth inhibition. It is filed as functional.
Experiment [2] in a line: Antiproliferative activity against human DLD1 cells assessed as growth inhibition. It is filed as functional. As to conditions: DLD-1.
In another experiment the test system is NCI-H157. In words: Antiproliferative activity against human NCI-H157 cells assessed as growth inhibition. It is filed as functional.
The nature of experiment [3]: Antiproliferative activity against human BT20 cells assessed as growth inhibition. The class given is functional. Particulars: BT-20.
The subject of experiment [4] is K562. Put plainly: Antiproliferative activity against human K562 cells assessed as growth inhibition. It is filed as functional.
The subject of a further experiment is KB. In words: Antiproliferative activity against human KB cells assessed as growth inhibition. It is filed as functional, cell-based.
In experiment [5] the test system is MCF7. Put plainly: Antiproliferative activity against human MCF7 cells. The class given is functional, cell-based.
For another experiment, the system named is NCI-H460. Put plainly: Antiproliferative activity against human NCI-H460 cells assessed as growth inhibition. The class given is functional, cell-based.
For experiment [6], the target named is T1, M-phase inducer phosphatase 1 (Homo sapiens, UniProt P30304).
T1 sequence (P30304 whole entry): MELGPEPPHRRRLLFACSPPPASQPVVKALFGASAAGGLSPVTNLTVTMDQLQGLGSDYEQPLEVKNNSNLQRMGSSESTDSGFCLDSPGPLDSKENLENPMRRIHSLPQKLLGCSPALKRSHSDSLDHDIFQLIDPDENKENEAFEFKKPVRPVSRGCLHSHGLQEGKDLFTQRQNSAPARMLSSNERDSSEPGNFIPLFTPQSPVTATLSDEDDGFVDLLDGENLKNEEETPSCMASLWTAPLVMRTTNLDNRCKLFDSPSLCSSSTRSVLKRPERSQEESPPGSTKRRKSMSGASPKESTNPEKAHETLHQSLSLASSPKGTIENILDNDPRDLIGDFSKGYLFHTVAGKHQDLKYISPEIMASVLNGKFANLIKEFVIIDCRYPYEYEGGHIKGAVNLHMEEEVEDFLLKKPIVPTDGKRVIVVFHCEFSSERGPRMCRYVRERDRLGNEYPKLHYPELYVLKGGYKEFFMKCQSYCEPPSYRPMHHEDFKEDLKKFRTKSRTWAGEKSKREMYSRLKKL
Put plainly: Inhibition of human CDC25A phosphatase.

In experiment [7] the target is T2, M-phase inducer phosphatase 2 (Homo sapiens, UniProt P30305).
T2 sequence (P30305 whole entry): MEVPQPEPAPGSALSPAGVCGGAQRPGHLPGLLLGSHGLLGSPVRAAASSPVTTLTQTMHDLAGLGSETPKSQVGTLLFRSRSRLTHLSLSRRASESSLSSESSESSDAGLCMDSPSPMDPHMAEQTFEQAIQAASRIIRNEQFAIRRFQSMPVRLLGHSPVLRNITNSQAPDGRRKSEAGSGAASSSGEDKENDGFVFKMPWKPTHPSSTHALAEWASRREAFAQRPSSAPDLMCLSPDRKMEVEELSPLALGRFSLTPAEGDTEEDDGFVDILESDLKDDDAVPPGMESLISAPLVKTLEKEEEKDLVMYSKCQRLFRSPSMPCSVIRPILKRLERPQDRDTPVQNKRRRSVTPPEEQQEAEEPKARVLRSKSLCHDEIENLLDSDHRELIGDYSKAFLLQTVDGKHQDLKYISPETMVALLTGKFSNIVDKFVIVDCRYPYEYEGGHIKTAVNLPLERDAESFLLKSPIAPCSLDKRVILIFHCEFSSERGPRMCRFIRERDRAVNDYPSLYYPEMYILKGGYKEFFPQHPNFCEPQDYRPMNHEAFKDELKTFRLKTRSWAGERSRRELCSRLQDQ
In words: Inhibition of human CDC25B phosphatase.

Experiment [8] deals with T3, M-phase inducer phosphatase 3 (Homo sapiens, UniProt P30307).
T3 sequence (P30307 whole entry): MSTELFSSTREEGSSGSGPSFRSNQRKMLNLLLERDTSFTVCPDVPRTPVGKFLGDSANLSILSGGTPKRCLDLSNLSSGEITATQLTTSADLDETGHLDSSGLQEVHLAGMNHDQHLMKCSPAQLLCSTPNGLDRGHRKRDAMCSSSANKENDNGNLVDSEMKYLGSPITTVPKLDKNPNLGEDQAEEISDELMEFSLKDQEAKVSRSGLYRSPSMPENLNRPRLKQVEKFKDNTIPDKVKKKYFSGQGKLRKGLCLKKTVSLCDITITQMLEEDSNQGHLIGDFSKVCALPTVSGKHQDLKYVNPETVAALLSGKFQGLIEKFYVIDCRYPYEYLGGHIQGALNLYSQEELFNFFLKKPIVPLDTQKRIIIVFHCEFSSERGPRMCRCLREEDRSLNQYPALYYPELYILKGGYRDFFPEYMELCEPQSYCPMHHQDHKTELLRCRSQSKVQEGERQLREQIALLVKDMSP
In words: Inhibition of human CDC25C phosphatase.

Experiment [9] concerns MCF7. Put plainly: Antiproliferative activity against human MCF7 cells assessed as growth inhibition. It is filed as functional, cell-based.
The test system of experiment [10] is MDA-MB-231. Put plainly: Antiproliferative activity against human MDA-MB-231 cells assessed as growth inhibition. The class given is functional, cell-based.
Experiment [11] in a line: Antiproliferative activity against human hTERT-HME1 cells assessed as growth inhibition. The class given is functional, cell-based.
For experiment [12], the system named is MCF7. Put plainly: Antitumor activity against human MCF7 cells assessed as cell viability by MTT assay. The class given is functional, cell-based.
Experiment [13] deals with K562. Put plainly: Antitumor activity against human K562 cells assessed as cell viability by MTT assay. The class given is functional, cell-based. In general terms: Tetrazolium assays rely on reduction of a dye to a coloured formazan, in cell work by metabolically active cells.
The test system of another experiment is SK-N-MC. In words: Cytotoxicity against human SK-N-MC cells as cell viability by MTT assay. It is filed as functional, cell-based.
The subject of experiment [14] is MDA-MB-231. In words: Cytotoxicity against human MDA-MB-231 cells assessed as cell viability by MTT assay. The class given is functional, cell-based.
For a further experiment, the system named is A549. Put plainly: Antitumor activity against human A549 cells assessed as cell viability incubated for 72 hrs by MTT assay. It is filed as functional, cell-based. As to conditions: A549, 72 h.
In experiment [15] the test system is MCF7. In words: Cytotoxicity against human MCF7 cells assessed as cell viability incubated for 72 hrs by SRB assay. It is filed as functional, cell-based. Particulars: MCF7, 72 h. (In general: Sulforhodamine B stains cellular protein and so reports cell mass.)
The subject of experiment [16] is HepG2. In words: Cytotoxicity against human HepG2 cells assessed as cell viability incubated for 72 hrs by SRB assay. It is filed as functional, cell-based. Particulars: HepG2, 72 h.
Another experiment concerns HCT-15. In words: Cytotoxicity against human HCT15 cells assessed as cell viability incubated for 72 hrs by SRB assay. Particulars: HCT-15, 72 h. The class given is functional, cell-based.
In experiment [17] the test system is HepG2. Put plainly: Cytotoxicity against human HepG2 cells assessed as cell viability by MTT assay. The class given is functional, cell-based.
For experiment [18], the system named is DU-145. In words: Antiproliferative activity against human DU145 cells assessed as growth inhibition by tryphan blue exclusion method. It is filed as functional.

≈ marks a conversion by molar mass, not a printed value.

As to `O=c1oc2c(Br)cccc2cc1S(=O)(=O)Nc1ccc(Br)cc1`, the GI50 (with DU-145 [1]; in experiment [2]; in the experiment on NCI-H157; in [3]; in the experiment on K562 [4]) was 12 µM in each case.

Turning to `COc1cc(OC)cc(-c2cc3ccc(OC(C)=O)c(OC(C)=O)c3oc2=O)c1`, in the experiment with KB, the IC50 turned out to be 5.18 µM.

For `Cc1cc(C(=O)c2ccccc2Br)ccc1OCC(=O)NNC(=O)c1cc2ccccc2oc1=O`, in the experiment on MCF7 [5], the IC50 is below 10 µM.

For the compound `Cc1ccc(C(=O)c2cc(F)c(OCC(=O)NNC(=O)c3cc4ccccc4oc3=O)c(Cl)c2)cc1`, the IC50 with MCF7 [5] was below 10 µM.

In the experiment on MCF7 [5], `Cc1cc(C(=O)c2ccc(Cl)cc2Cl)ccc1OCC(=O)NNC(=O)c1cc2ccccc2oc1=O` showed an IC50 below 10 µM.

As for `C/C(=N/NC(=O)c1cc2ccccc2oc1=O)c1cccnc1`, the IC50 with NCI-H460 was found to be 10 µM.

For `COc1ccc2c(CSC3=CC(=O)c4ccccc4C3=O)cc(=O)oc2c1`, the IC50 in experiment [6] is at most 9 µM; in [7] it was at most 9 µM; in experiment [8], at most 9 µM; in the experiment with MCF7 [9] it was at most 11 µM; in the experiment with MDA-MB-231 [10] it was at most 11 µM; in [11] it was 18 µM.

Consider `CCc1nc([N+](=O)[O-])c(N2CCN(/C(=N/Nc3ccc4c(C)cc(=O)oc4c3)C(C)=O)CC2)n1Cc1ccccc1`, for which the IC50 came out at 20.2 µM with MCF7 [12] and 9.3 µM in the experiment on K562 [13].

Take `O=c1oc2ccccc2c2c1C(c1cc(Br)ccc1O)SCCN2` (stereo not drawn): the concentration for half-maximal inhibition (IC50) was found to be 3.75 µg/mL in the experiment with MCF7 [12], 3.75 µg/mL (≈ 9.28 µM) in the experiment on SK-N-MC and 3.75 µg/mL (≈ 9.28 µM) in the experiment with MDA-MB-231 [14].

Take `COc1cccc(C2c3cc(C)ccc3Nc3c2c(=O)oc2ccccc32)c1` (stereo not drawn): the IC50 in the experiment with A549 was 0.05 µM.

For the compound `CC1=CP(C(c2ccccc2)(c2ccccc2)c2ccccc2)Oc2c1c(=O)oc1ccccc21` (stereo not drawn), the IC50 in the experiment on MCF7 [15] and in the experiment with HepG2 [16] was at most 3.89 µg/mL each time.

Consider `CCOC1(c2ccccc2)Oc2c(c(=O)oc3ccccc23)/C1=C\C(=O)c1ccccc1` (stereo not drawn), for which the IC50 in the experiment on MCF7 [15] and in the experiment with HCT-15 was 8 µM in each case.

Regarding `O=C(/C=C1\c2c(c3ccccc3oc2=O)OC1(c1ccccc1)N1CCCC1)c1ccccc1` (stereo not drawn), the IC50 in the experiment with MCF7 [15] and in the experiment on HCT-15 was 8 µM throughout.

Regarding `Cc1cc(-c2cc3cc(Cl)ccc3oc2=O)n(-c2nc(-c3ccc(Cl)cc3)cs2)n1`, the IC50 with HepG2 [17] is at most 3.25 µM.

Turning to `COc1ccc(-c2csc(-n3nc(C)cc3-c3cc4cc(Cl)ccc4oc3=O)n2)cc1`, the IC50 in the experiment on HepG2 [17] was at most 3.25 µM.

Take `Cc1ccc2c(c1)C(c1ccccc1)c1c(c3ccccc3oc1=O)N2` (stereo not drawn): the values for the IC50 with MCF7 [12] and in the experiment with A549 were 0.52 µM and 0.14 µM, respectively.

Turning to `NCCCCCCCCNC(=O)c1c(O)c2ccccc2oc1=O`, the GI50 with DU-145 [18] is below 10 µM.

Values taken from ChEMBL document CHEMBL3621131, “Current developments of coumarin-based anti-cancer agents in medicinal chemistry” (Eur J Med Chem, 2015).
